Results published in article PMC7465886, “4-(N-Alkyl- and -Acyl-amino)-1,2,4-triazole-3-thione Analogs as Metallo-β-Lactamase Inhibitors: Impact of 4-Linker on Potency and Spectrum of Inhibition” (Biomolecules, 2020).
Like-named read-outs stand apart in the source and are kept apart here.

Assays:
VIM-2 [1] = biological target: T1, VIM-2 (Escherichia coli, UniProt Q5U7L7); conditions: cited from earlier work; for Ki: Schiff base analogs, read-out: Ki Value VIM-2, hydrazone-like compound (converted); for Inhibition of VIM-2 (dash in Ki column), corresponding hydrazone-like compound: in parentheses, 100 μM inhibitor
T1 construct: made in house; host or cells: E. coli BL21(DE3) derivative, pET-9a

NDM-1 [2] = biological target: T2, NDM-1 (Klebsiella pneumoniae, UniProt C7C422); set-up: method as in PMID 32937203; conditions: cited from earlier work; for Inhibition of NDM-1 (dash in Ki column), corresponding hydrazone-like compound: in parentheses, 100 μM inhibitor; for Ki: Schiff base analogs, read-out: Ki Value NDM-1, hydrazone-like compound (converted)
T2 sequence (C7C422 37-270 limits assumed): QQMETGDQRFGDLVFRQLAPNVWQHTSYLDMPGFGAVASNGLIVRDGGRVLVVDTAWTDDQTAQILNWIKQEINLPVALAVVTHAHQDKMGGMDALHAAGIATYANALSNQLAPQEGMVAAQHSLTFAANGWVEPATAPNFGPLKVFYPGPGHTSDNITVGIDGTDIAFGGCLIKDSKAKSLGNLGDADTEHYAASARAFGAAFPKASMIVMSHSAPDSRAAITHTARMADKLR

IMP-1 [3] = biological target: T3, IMP-1 (Serratia marcescens, UniProt P52699); set-up: method as in PMID 32937203; conditions: cited from earlier work; for Ki: value in parentheses, read-out: Ki Value IMP-1, corresponding hydrazone-like compound (converted); for Inhibition of IMP-1 (dash in Ki column), corresponding hydrazone-like compound: in parentheses, 100 μM inhibitor
T3 construct: made in house; host or cells: E. coli BL21(DE3) derivative, pET-9a
T3 sequence (P52699 19-246 limits assumed): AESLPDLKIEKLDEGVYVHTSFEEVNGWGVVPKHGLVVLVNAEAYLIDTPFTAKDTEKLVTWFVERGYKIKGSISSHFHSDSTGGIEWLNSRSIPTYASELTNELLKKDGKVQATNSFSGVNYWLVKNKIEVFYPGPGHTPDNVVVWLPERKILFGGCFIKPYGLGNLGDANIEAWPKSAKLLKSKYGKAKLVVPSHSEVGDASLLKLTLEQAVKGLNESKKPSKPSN

VIM-2 [4] = biological target: T1, VIM-2; experiment: MBL inhibition, reporter substrate method, VIM-2; type: biochemical
Procedure: (§1) Compounds were prepared in DMSO at a final concentration of 50 mM prior to dilution in the assay buffer. The reaction rate was measured as the variation of absorbance observed upon substrate hydrolysis in a UV-Vis spectrophotometer or microplate reader at a wavelength of 300 nm (imipenem, meropenem), 260 nm (cefotaxime), or 482 nm (nitrocefin) and in the presence of a purified MBL enzyme (such as VIM-1, VIM-2, VIM-4, NDM-1, and IMP-1, at a final concentration ranging from 1 to 70 nM).
(§2) These enzymes were overproduced in derivatives of E. coli BL21(DE3) carrying a pET-9 a (IMP-1, VIM-1, VIM-2, and VIM-4) or pET-15 b (NDM-1) vector into which the metallo-β-lactamase-encoding open reading frame was cloned. Bacterial strains were grown in the auto-inducing medium, ZYP-5052, supplemented with 50 μg/mL kanamycin for 24 h at 37 °C [38]. IMP-1, VIM-1, VIM-2, and VIM-4 were purified by ion-exchange and gel filtration chromatography using an AKTA Purifier platform (GE Healthcare, Uppsala, Sweden) as previously described. NDM-1 (residues 37-270) was produced as an amino-terminal 6 xHis-tag fusion protein and was purified using affinity chromatography. After growth for 26 h at 25 °C, bacterial cells were harvested by centrifugation (10,000× g, 30 min, 4 °C), resuspended in 10 mM HEPES buffer (pH 7.5) containing 0.15 M NaCl (buffer A) in one-fifth of the original culture volume, and lysed by sonication. Cellular debris was removed by centrifugation (12,000× g, 40 min, 4 °C). The clarified sample was loaded on a HisTrap HP column (bed volume, 5 mL; GE Healthcare), followed by a wash step (25 mL) with buffer A containing 20 mM imidazole. Proteins were eluted using buffer A containing 350 mM imidazole. The resulting protein sample was desalted (HiPrep 26/10 Desalting column, GE Healthcare) using 20 mM triethanolamine (pH 7.2) supplemented with 50 μM ZnSO4 and concentrated using an Amicon Ultra-15 (MW cut-off, 10 kDa; Millipore, Burlington, MA, USA). The concentrated sample was loaded on a Superdex 75 prep grade column (XK16/100 column; bed volume, 140 mL; GE Healthcare) and the proteins eluted with buffer A containing 50 μM ZnSO4. The active fractions were pooled and stored at −20 °C. The purity of the protein preparations was estimated >95% by SDS-PAGE analysis. The authenticity of the enzyme preparations was confirmed by electron spray ionization mass spectrometry, as previously described.
(§3) The inhibition constants (Ki) were determined on the basis of a model of competitive inhibition by analyzing the dependence of the ratio v0/vi (v0, hydrolysis velocity in the absence of inhibitor; vi, hydrolysis velocity in the presence of inhibitor) as a function of [I] as already described. The slope of the plot of v0/vi vs. [I], which corresponds to Km^S/(Km^S + [S])Ki (where Km^S is the Km value of the reporter substrate and [S] its concentration in the reaction mixture) and allowed the calculation of the Ki value. Alternatively, a Dixon plot analysis was carried out by measuring the initial hydrolysis rates in the presence of variable concentrations of inhibitor and substrate. This allowed Ki values to be determined and supported the hypothesis that the various compounds behaved as competitive inhibitors of the various tested enzymes. The assays were performed in triplicate.

IMP-1 [5] = biological target: T3, IMP-1; experiment: MBL inhibition, reporter substrate method, IMP-1; type: biochemical; conditions: value in parentheses; analogs of compounds 5 and 6 (this work); read-out: Ki Value IMP-1, corresponding hydrazone-like compound
Procedure: as §1, §2, §3

NDM-1 [6] = biological target: T2, NDM-1; experiment: MBL inhibition, reporter substrate method, NDM-1; type: biochemical; conditions: value in parentheses; analogs of compounds 5 and 6 (this work); read-out: Ki Value NDM-1, corresponding hydrazone-like compound
Procedure: as §1, §2, §3

SMILES	Ki (VIM-2 [1])	Inhibition of NDM-1 (dash in Ki column), corresponding hydrazone-like compound (NDM-1 [2])	Ki (IMP-1 [3])	Ki (NDM-1 [2])	Inhibition of IMP-1 (dash in Ki column), corresponding hydrazone-like compound (IMP-1 [3])	also measured
Cc1ccccc1-c1n[nH]c(=S)n1N=Cc1ccccc1C(=O)O [hydrazone-like analog of 2]	3 µM	- (-) (<40% of inhibition in the presence of 100 μM inhibitor)	58 µM			
O=C(O)c1ccccc1C=Nn1c(-c2cccc(-c3ccccc3)c2)n[nH]c1=S [hydrazone-like analog of 3]	0.2 µM		18 µM	4.2 µM		
O=C(O)c1ccccc1C=Nn1c(-c2ccc3ccccc3c2)n[nH]c1=S [hydrazone-like analog of 4]	0.7 µM		6.9 µM	2.3 µM		
O=C(O)c1ccccc1C=Nn1c(-c2cc3ccccc3[nH]2)n[nH]c1=S [hydrazone-like analog of 5]						inhibition at 100 µM (VIM-2 [4]; read-out: Inhibition of VIM-2 (dash in Ki column), corresponding hydrazone-like compound): < 40%; Ki (IMP-1 [5]): 55 µM; Ki (NDM-1 [6]): 9.4 µM
O=C(O)c1ccccc1C=Nn1c(Cc2ccccc2)n[nH]c1=S [hydrazone-like analog of 6]						Ki (VIM-2 [4]; value in parentheses, analogs of compounds 5 and 6 (this work), read-out: Ki Value VIM-2, corresponding hydrazone-like compound (converted)): 3.2 µM; Ki (IMP-1 [5]): 28 µM; Ki (NDM-1 [6]): 42 µM
O=C(O)c1ccccc1C=Nn1c(Cc2ccc3ccccc3c2)n[nH]c1=S [hydrazone-like analog of 7]	2.4 µM		34 µM	1.6 µM		
O=C(O)c1ccccc1C=Nn1c(CCc2ccccc2)n[nH]c1=S [hydrazone-like analog of 8]	7 µM	- (-) (<40% of inhibition in the presence of 100 μM inhibitor)			- (-) (<40% of inhibition in the presence of 100 μM inhibitor)	
O=[N+]([O-])c1ccccc1C=Nn1c(CCc2ccccc2)n[nH]c1=S [hydrazone-like analog of 9]		- (-) (<40% of inhibition in the presence of 100 μM inhibitor)			- (-) (<40% of inhibition in the presence of 100 μM inhibitor)	Inhibition of VIM-2 (dash in Ki column), corresponding hydrazone-like compound (VIM-2 [1]): - (-) (<40% of inhibition in the presence of 100 μM inhibitor)
O=C(O)c1ccc(C=Nn2c(CCc3ccccc3)n[nH]c2=S)cc1 [hydrazone-like analog of 10]		- (-) (<40% of inhibition in the presence of 100 μM inhibitor)	11 µM			Inhibition of VIM-2 (dash in Ki column), corresponding hydrazone-like compound (VIM-2 [1]): - (-) (<40% of inhibition in the presence of 100 μM inhibitor)
O=C(O)c1ccccc1C=Nn1c(CC(c2ccccc2)c2ccccc2)n[nH]c1=S [hydrazone-like analog of 11]	25 µM			2.7 µM	- (-) (<40% of inhibition in the presence of 100 μM inhibitor)	
O=C(O)c1ccccc1C=Nn1c(COc2ccc3ccccc3c2)n[nH]c1=S [hydrazone-like analog of 12]	2 µM			2.4 µM	- (-) (<40% of inhibition in the presence of 100 μM inhibitor)	
